One experiment deals with Candida albicans. Briefly: MIC and Synergy Index (Kull) of two-component compositions. In kind it is cell-based. Conditions: for MIC: Candida albicans. The method, then: (§1) A wide range of concentrations were tested against Pseudomonas aeruginosa, Staphylococcus aureus, Escherichia coli, and Candda albicans.
(§2) The lowest concentration of each mixture or single compound which prevents an observable level of growth was determined to be the minimum inhibitory concentration (MIC) value.
(§3) Serial dilutions of each mixture or single compound were prepared. Micro-organisms were inoculated into media: Nutrient Broth (bacteria) or Malt Extract Broth (yeast). The final concentrations of micro-organisms in media was approximately 10^5-6 CFU/ml. The inoculated media was introduced to each of the serial dilutions at a 1:1 ratio, and incubated at 30±1° C. for 24-48 hours.
(§4) The MICs for each mixture was compared with the MIC of each single compound alone.
(§5) In this study the end point is measured by the MIC.

For a further experiment, the system named is Escherichia coli. Described as above. In kind it is cell-based. As to the method: as §1, §2, §3, §4
(§6) Synergy was determined using the Kull equation (F. C. Kull et. al., “Mixtures of Quaternary Ammonium Compounds and Long-chain Fatty Acids as Antifungal Agents”, Appl Microbiol. 1961 November; 9(6): 538-541), which calculates a Synergy Index (SI) according the following equation:
(§7) [formula] • wherein • QA=concentration of compound A in ppm, acting alone produced an end point, • Qa=concentration of compound A in ppm, in the mixture, which produced an end point, • QB=concentration of compound B in ppm, acting alone produced an end point, and • Qb=concentration of compound B in ppm, in the mixture, which produced an end point;
as §5

For experiment [1], the system named is Aspergillus brasiliensis ATCC 16404. The experiment is described as follows: Preservation efficacy test in sterile distilled water, drop plate. Format: cell-based. The note with it: 7 days, Butyl Levulinate 0 ppm. As to the method: (§8) In the following example, the following test organisms were used: • Pseudomonas aeruginosa ATCC 9027 • Aspergillus brasiliensis ATCC 16404 [table] Mould strain spores were harvested (sterile distilled water+0.05% polysorbate 80) and treated to remove fungal hyphae. Mould strain spores were prepared in diluent (sterile distilled water) to obtain a final concentration of 1.0×10^5 to 1.0×10^5 cfu/ml. [table] […] Each sample was inoculated at t=0 with a known concentration of micro-organism. Each inoculated sample was then mixed until a homogenous mixture was obtained. […] The solution was left for 15 minutes. Subsequent dilutions were prepared by serial dilution of 0.1 ml into 0.9 ml of neutralising broth. Bacteria were serially diluted to 10^−4, Fungi were serially diluted to 10^−3. Each serial dilution was thoroughly mixed and 25 μl drops were aliquoted onto the surface of pre-prepared agar plates. Plates were prepared in sextupicate for each sample dilution. The agar plates were allowed to dry, then inverted and incubated under conditions appropriate for the test microorganisms. CFU/ml was calculated taking into account dilution factors. […] The lower and upper limits for drop plating were only employed on the highest and lowest dilution factor plates.

In a further experiment the test system is Pseudomonas aeruginosa. Briefly: MIC and Synergy Index (Kull) of two-component compositions. In kind it is cell-based. The method, then: as §1, §2, §3, §4, §6, §7, §5
The next experiment deals with Staphylococcus aureus. The experiment is described as above. In kind it is cell-based. The note with it: for MIC: Staphylococcus aureus. The method, then: as §1, §2, §3, §4, §6, §7, §5
Experiment [2] concerns Pseudomonas aeruginosa ATCC 9027. The experiment is described as follows: Preservation efficacy test in sterile distilled water, drop plate. In kind it is cell-based. The note with it: 7 days, Butyl Levulinate 0 ppm. The method, then:
as §8, with “[table] Bacteria” for “[table] Mould strain spores”, “harvested” for “harvested (sterile distilled water+0.05% polysorbate 80)”, “and” for “and treated to remove fungal hyphae. Mould strain spores were”, “of 1.0×10^6” for “of 1.0×10^5”, “to 5.0×10^6” for “to 1.0×10^5”

Another experiment deals with C. albicans. The experiment is described as above. Format: cell-based, Candida albicans. Conditions: 7 days, pH 7, Butyl Levulinate 0 ppm. The method, then: Yeast strains were harvested and prepared in diluent (sterile distilled water) to obtain a final concentration of 1.0×10^5 to 1.0×10^6 cfu/ml.
Preservation efficacy testing started at Day 0 (t=0). Each sample was inoculated at t=0 with a known concentration of micro-organism. Each inoculated sample was then mixed until a homogenous mixture was obtained. Inoculated samples were stored in the dark at 22.5±2.5° C. throughout the test period.
At the specified contact time of 7 days (t=7), test samples were deactivated by adding a 0.1 ml aliquot of the test sample to 0.9 ml of an appropriate neutralising broth. The solution was left for 15 minutes. Subsequent dilutions were prepared by serial dilution of 0.1 ml into 0.9 ml of neutralising broth. Bacteria were serially diluted to 10^−4, Fungi were serially diluted to 10^−3.
Each serial dilution was thoroughly mixed and 25 μl drops were aliquoted onto the surface of pre-prepared agar plates. Plates were prepared in sextupicate for each sample dilution.
The agar plates were allowed to dry, then inverted and incubated under conditions appropriate for the test microorganisms.
CFU/ml was calculated taking into account dilution factors. Colonies from the incubated plates were enumerated using the lower count limit of <10 CFU/ml and the upper count limit of >330 CFU/ml.
The lower and upper limits for drop plating were only employed on the highest and lowest dilution factor plates.
The test organisms were prepared and the method was performed according to the protocol of Example 1.

Setting [3] is: Lactic Acid alone, or its concentration in the mixture with ethyl levulinate, read-out: MIC (ppm) to inhibit growth: Lactic Acid.
[4] abbreviates: read-out: MIC (ppm) to inhibit growth: Potassium Sorbate.
Where [5] appears, read: pH 7, Potassium Sorbate 5000 ppm.
The mark [6] stands for this setting: pH 7, Potassium Sorbate 10000 ppm.
[7] abbreviates: pH 7, Potassium Sorbate 15000 ppm.
[8] abbreviates: pH 7, Potassium Sorbate 20000 ppm.
Where [9] appears, read: pH 7, Potassium Sorbate 25000 ppm.
The mark [10] stands for this setting: Sodium benzoate alone, or its concentration in the mixture with butyl levulinate.
The mark [11] stands for this setting: Sodium benzoate alone, or its concentration in the mixture with ethyl levulinate.
Where [12] appears, read: pH 7, Sodium Benzoate 10000 ppm.
The mark [13] stands for this setting: pH 7, Sodium Benzoate 15000 ppm.
Where [14] appears, read: pH 7, Sodium Benzoate 20000 ppm.
[15] abbreviates: pH 7, Sodium Benzoate 25000 ppm.
The mark [16] stands for this setting: pH 8, Sodium Benzoate 10000 ppm.
[17] abbreviates: pH 8, Sodium Benzoate 15000 ppm.
Setting [18] is: pH 8, Sodium Benzoate 20000 ppm.
[19] abbreviates: pH 8, Sodium Benzoate 25000 ppm.
Setting [20] is: Sodium Pyrithione alone, or its concentration in the mixture with ethyl levulinate.
[21] abbreviates: Sodium pyrithione alone, or its concentration in the mixture with butyl levulinate.
Setting [22] is: ADBAC alone, or its concentration in the mixture with ethyl levulinate.

Read-outs that look alike come from different tables or passages of the source.

In the case of `O=c1[nH]sc2ccccc12` [BIT, benzisothiazolinone, reference compound], in the experiment on Candida albicans (BIT alone, or its concentration in the mixture with butyl levulinate), the “MIC (ppm) to inhibit growth: BIT” value was 31 ppm.

`CC(=O)C1C(=O)C=C(C)OC1=O` (stereo not shown) [DHA, dehydroacetic acid, reference compound]: the MIC – broadly, the lowest concentration that inhibits growth of the organism – came out at 250 µg/mL with Candida albicans (read-out: MIC (ppm) to inhibit growth: DHA) and 5000 µg/mL in the experiment with Escherichia coli (Escherichia coli, read-out: MIC (ppm) to inhibit growth: DHA).

With `CCCCNC(=O)OCC#CI` [IPBC, 3-Iodo-2-propynyl butylcarbamate, reference compound], the Log reduction in experiment [1] (pH 7, IPBC 100 ppm) came out at 1.21; in experiment [1] (pH 7, IPBC 250 ppm), 0.77; in experiment [1] (pH 7, IPBC 500 ppm), 0.71; in experiment [1] (pH 7, IPBC 750 ppm), 0.57; in experiment [1] (pH 7, IPBC 1000 ppm) it was 0.85.

In the case of `CC(O)C(=O)O` (stereo not shown) [Lactic Acid, lactic acid, reference compound], the MIC in the experiment with Candida albicans (setting [3]) stood at 10000 µg/mL; with Pseudomonas aeruginosa (Pseudomonas aeruginosa, Lactic Acid alone, or its concentration in the mixture with butyl levulinate, read-out: MIC (ppm) to inhibit growth: Lactic Acid), 625 µg/mL; in the experiment on Staphylococcus aureus (setting [3]), 156 µg/mL.

On to `C/C=C/C=C/C(=O)[O-].[K+]` [Potassium Sorbate, potassium sorbate, reference compound], for which the MIC in the experiment on Candida albicans (setting [4]) was 2500 µg/mL; with Staphylococcus aureus (setting [4]), 156 µg/mL. Further, in the experiment on Candida albicans (Potassium Sorbate alone, or its concentration in the mixture with butyl levulinate), the “MIC (ppm) to inhibit growth: Potassium Sorbate” value is on record as 2500 ppm. Besides, the Log reduction in experiment [1] (setting [5]) is 0.58; in experiment [1] (setting [6]) it was 0.67; in experiment [1] (setting [7]) it was 0.45; in experiment [1] (setting [8]), 0.64; in experiment [1] (setting [9]) it was 0.52; in experiment [2] (setting [5]), less than 0.03. In addition, the Log reduction in experiment [2] (setting [6]) is less than 0.03; in experiment [2] (setting [7]) it was less than 0.03; in experiment [2] (setting [8]), more than 4.55; in experiment [2] (setting [9]) it was more than 4.55; in experiment [2] (pH 8, Potassium Sorbate 5000 ppm), less than 0.33; in experiment [2] (pH 8, Potassium Sorbate 10000 ppm) it was less than 0.33. Moreover, the Log reduction is less than 0.33 in experiment [2] (pH 8, Potassium Sorbate 15000 ppm); less than 0.33 in experiment [2] (pH 8, Potassium Sorbate 20000 ppm); less than 0.33 in experiment [2] (pH 8, Potassium Sorbate 25000 ppm); 1.01 in the experiment on C. albicans (Potassium Sorbate 5000 ppm); 0.72 in the experiment on C. albicans (Potassium Sorbate 10000 ppm); 0.72 in the experiment with C. albicans (Potassium Sorbate 15000 ppm). The Log reduction was 0.92 in the experiment with C. albicans (Potassium Sorbate 20000 ppm) and 0.83 in the experiment on C. albicans (Potassium Sorbate 25000 ppm).

Consider `O=C([O-])c1ccccc1.[Na+]` [Sodium Benzoate, sodium benzoate, reference compound], for which the “MIC (ppm) to inhibit growth: Sodium benzoate” value in the experiment with Candida albicans (setting [10]) was 7500 ppm; in the experiment on Candida albicans (setting [11]), 7500 ppm; in the experiment on Escherichia coli (setting [10]), 7500 ppm; in the experiment with Escherichia coli (setting [11]) it was 7500 ppm; with Staphylococcus aureus (setting [10]) it was 15000 ppm; in the experiment with Staphylococcus aureus (setting [11]), 15000 ppm. In addition, the Log reduction in experiment [1] (pH 7, Sodium Benzoate 5000 ppm) was determined as 2.09; in experiment [1] (setting [12]) it was 2.14; in experiment [1] (setting [13]), 2.20; in experiment [1] (setting [14]) it was 2.33; in experiment [1] (setting [15]) it was 3.11; in experiment [1] (pH 8, Sodium Benzoate 5000 ppm), 0.33. In addition, the Log reduction in experiment [1] (setting [16]) is on record as 0.70; in experiment [1] (setting [17]), 0.64; in experiment [1] (setting [18]) it was 0.60; in experiment [1] (setting [19]) it was 0.55; in experiment [2] (pH 7, Sodium Benzoate 5000 ppm) it was 1.73; in experiment [2] (setting [12]), more than 4.90. In addition, the Log reduction in experiment [2] (setting [13]) is more than 4.90; in experiment [2] (setting [14]) it was more than 4.90; in experiment [2] (setting [15]) it was more than 4.90; in experiment [2] (pH 8, Sodium Benzoate 5000 ppm) it was 1.54; in experiment [2] (setting [16]), 1.36; in experiment [2] (setting [17]), 1.57. For the same compound, the values for the Log reduction in experiment [2] (setting [18]) and in experiment [2] (setting [19]) were 3.20 and more than 4.57, respectively.

With `[Na+].[O-][n+]1ccccc1[S-]` [Sodium Pyrithione, sodium pyrithione, reference compound], the “MIC (ppm) to inhibit growth: Sodium Pyrithione” value in the experiment with Candida albicans (setting [20]) was 31 ppm; with Candida albicans (setting [21]) it was 16 ppm; in the experiment with Pseudomonas aeruginosa (setting [20]), 63 ppm; in the experiment on Pseudomonas aeruginosa (setting [21]), 63 ppm.

In the case of “alkyldimethylbenzylammonium chloride [ADBAC]”, the entries for the “MIC (ppm) to inhibit growth: ADBAC” value with Candida albicans (setting [22]) and with Pseudomonas aeruginosa (setting [22]) were 8 ppm and 16 ppm, respectively.

“poly(hexamethylene) biguanide [PHMB, reference compound]”: the “MIC (ppm) to inhibit growth: PHMB” value in the experiment with Candida albicans (PHMB alone, or its concentration in the mixture with butyl levulinate) amounted to 313 ppm.

Values taken from US20250040543A1, “Preservative Composition” (ARXADA AG, priority 2021, published 2025).
